Assays:
[1] = Stability in human liver microsomes assessed as half-life at 1.5 uM measured upto 45 mins in presence of NADPH by LC-MS/MS analysis; assay type: ADME, Microsome
[2] = Stability in human liver microsomes assessed as intrinsic clearance at 1.5 uM measured upto 45 mins in presence of NADPH by LC-MS/MS analysis; assay type: ADME, Microsome; conditions: read-out: CLH

half-life at 1.5 µM [1]: 1.68 h
CLint scaled at 1.5 µM [2]: 17.3 mL/min/kg
Structure (SMILES): O=C(c1ccc(F)cc1)C1CCN(CCn2c(=O)[nH]c3ccccc3c2=O)CC1 [KETANSERIN]

— ChEMBL document CHEMBL5634101, “Discovery of NLRP3 inhibitors using machine learning: Identification of a hit compound to treat NLRP3 activation-driven diseases” (Eur J Med Chem, 2023)
